Test results reported in the supplement of paper PMC10307832.

Legend:
Test in all cases: relative viability (nuclei count vs DMSO), 5 days (fraction); higher = more cells survive
[1] = compound: CC1CC(=O)N(C2=CN=C(N=C2N1C3CCCC3)NC4=C(C=C(C=C4)C(=O)NC5CCN(CC5)C)OC)C [NPK76-II-72-1] + CS(=O)(=O)N1CCN(Cc2cc3nc(-c4cccc5[nH]ncc45)nc(N4CCOCC4)c3s2)CC1 [Pictilisib] (partner 1 µM)
Procedure, shortened: (§1)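 Lung cancer cell lines were seeded in 1536-well plates and dosed by pin tool the next day, with either a single drug or a fixed anchor-drug dose combined with five library-drug doses (not always all listed) spaced in √10 steps. Five days later, one step fixed the cells and stained their nuclei (final 0.05% Triton X-100, 1% formaldehyde, 1 ug/ml Hoechst), and nuclei were counted on 4× images. Relative viability is the nuclei count in treated wells divided by the count in vehicle wells, and each value is the median of duplicate plates.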

[2] = compound: CC1CC(=O)N(C2=CN=C(N=C2N1C3CCCC3)NC4=C(C=C(C=C4)C(=O)NC5CCN(CC5)C)OC)C [NPK76-II-72-1] + Nc1ncn([C@H]2C[C@H](O)[C@@H](CO)O2)c(=O)n1 [Decitabine] (partner 2 µM)
Procedure, shortened: as §1

BI-2536 + Trametinib = compound: CC[C@@H]1C(=O)N(C)c2cnc(Nc3ccc(C(=O)NC4CCN(C)CC4)cc3OC)nc2N1C1CCCC1 [BI-2536] + CC(=O)Nc1cccc(-n2c(=O)n(C3CC3)c(=O)c3c(Nc4ccc(I)cc4F)n(C)c(=O)c(C)c32)c1 [Trametinib] (partner 0.02 µM)
Procedure, shortened: as §1

BI-2536 + Crizotinib = compound: CC[C@@H]1C(=O)N(C)c2cnc(Nc3ccc(C(=O)NC4CCN(C)CC4)cc3OC)nc2N1C1CCCC1 [BI-2536] + C[C@@H](Oc1cc(-c2cnn(C3CCNCC3)c2)cnc1N)c1c(Cl)ccc(F)c1Cl [Crizotinib] (partner 1 µM)
Procedure, shortened: as §1

UMC-11 gave a relative viability ([1]; first compound 0.01 µM) of 0.75, a relative viability ([1]; first compound 0.03162 µM) of 0.707 and a relative viability ([1]; first compound 0.1 µM) of 0.881. The relative viability ([1]; first compound 0.3162 µM) was 0.806, the relative viability ([1]; first compound 1 µM) was 0.778 and the relative viability ([2]; first compound 0.01 µM) was 0.617. The relative viability ([2]; first compound 0.03162 µM) was 0.57, the relative viability ([2]; first compound 0.1 µM) was 0.683 and the relative viability ([2]; first compound 0.3162 µM) was 0.505. It also gave a relative viability ([2]; first compound 1 µM) of 0.736, a relative viability (BI-2536 + Trametinib; first compound 0.01 µM) of 0.489 and a relative viability (BI-2536 + Trametinib; first compound 0.03162 µM) of 0.637. For the same cell line, the relative viability (BI-2536 + Trametinib; first compound 0.1 µM) was 0.173, the relative viability (BI-2536 + Trametinib; first compound 0.3162 µM) was 0.175 and the relative viability (BI-2536 + Trametinib; first compound 1 µM) was 0.521. For the same cell line, the relative viability (BI-2536 + Crizotinib; first compound 0.01 µM) was 0.48, the relative viability (BI-2536 + Crizotinib; first compound 0.03162 µM) was 0.237 and the relative viability (BI-2536 + Crizotinib; first compound 0.1 µM) was 0.148. The relative viability (BI-2536 + Crizotinib; first compound 0.3162 µM) was 0.133 and the relative viability (BI-2536 + Crizotinib; first compound 1 µM) was 0.1.
